Assay results taken from PMC12775819, “Optimizing PSMA-617-based inhibitors through charged linker modifications: Insights into structure-activity relationships” (Theranostics, 2026).
Non-standard residues stand in square brackets, D forms with d. Residues, ends and D or L forms follow the SMILES beside them. *: point of attachment. DOTA = O=C(O)CN1CCN(CC(=O)O)CCN(CC(=O)*)CCN(CC(=O)O)CC1; EuK = O=C(O)CC[C@H](NC(=O)N[C@@H](CCCCN*)C(=O)O)C(=O)O; 2Nal = N[C@@H](Cc1ccc2ccccc2c1)C(=O)O; Trx = NC[C@H]1CC[C@H](C(=O)O)CC1

Assays:
[1] = Static small-animal PET imaging 1 h and 2 h p.i.; details: male, BALB/c nu/nu, mouse, iv, 500 pmol, total radioactivity; for SUV at 1 h / SUV at 2 h: 68Ga-labeled, 0.5 nmol i.v., n = 1, SD from VOIs; for SUV at 1 h: static PET 1 h p.i.; for SUV at 2 h: static PET 2 h p.i.
[2] = Dynamic small-animal PET imaging (0 - 60 min); details: male, BALB/c nu/nu, mouse, tumor (LNCaP xenograft), iv, 500 pmol, total radioactivity
[3] = tumor (LNCaP xenograft), SUV tumor

Which results are given for O=C(O)CC[C@H](NC(=O)N[C@@H](CCCCNC(=O)[C@H](Cc1ccc2ccccc2c1)NC(=O)[C@H]1CC[C@H](CNC(=O)[C@H](CCC(=O)O)NC(=O)[C@H](Cc2c[nH]cn2)NC(=O)[C@H](CCC(=O)O)NC(=O)[C@H](Cc2c[nH]cn2)NC(=O)[C@H](CCC(=O)O)NC(=O)[C@H](Cc2c[nH]cn2)NC(=O)CN2CCN(CC(=O)O)CCN(CC(=O)O)CCN(CC(=O)O)CC2)CC1)C(=O)O)C(=O)O [[^68Ga]Ga-PS4, metal not drawn] ({DOTA}-HEHEHE[Trx][2Nal]-EuK)?
SUV at 1 h ([1]; kidneys, SUV kidneys): 3.81 ± 0.15 SUV; SUV at 2 h ([1]; kidneys, SUV kidneys): 2.77 ± 0.2 SUV; SUV at 1 h [1, 3]: 1.15 ± 0.04 SUV; SUV at 2 h [1, 3]: 1.07 ± 0.09 SUV; tissue to tissue ratio at 1 h ([1]; tumor / muscle): 10.5 ± 0.2; SUV at 1 h [2]: 1.07 SUV
